Test results taken from PMC7425579 (Journal of medicinal chemistry, 2020).

What was measured:
HIV-1DRV^RP30 = type: cell-based; conditions: HIV-1DRV^RP30, MT-4 cells
HIV-1ATV-5 μM = type: cell-based; conditions: MT-4 cells
[1] = system: highly drug-resistant HIV-1 variants; experiment: Antiviral activity against the panel of highly drug-resistant HIV-1 variants; type: cell-based; conditions: for ability to block replication of highly PI-resistant HIV-1 variants (in words): panel of Table 3
HIV-1 protease = HIV-1 protease (Human immunodeficiency virus type 1 group M subtype B, UniProt P04585); experiment: HIV-1 protease inhibition assay; type: biochemical; conditions: compared to 5b with the enantiomeric P2 ligand
HIV-1LAI = experiment: Antiviral assay in MT-2 human T-lymphoid cells exposed to HIV-1LAI; type: cell-based; conditions: MT-2 cells

## COC(=O)N[C@H](C(=O)N[C@@H](Cc1ccccc1)[C@@H](O)CN(Cc1ccc(-c2ccccn2)cc1)NC(=O)[C@@H](NC(=O)OC)C(C)(C)C)C(C)(C)C [ATV, atazanavir]
HIV-1DRV^RP30
  fold-change in IC50 compared to wild-type HIV-1NL4-3: > 250 fold
HIV-1ATV-5 μM
  fold-change in IC50 compared to wild-type HIV-1NL4-3: > 250 fold
[1]
  ability to block replication of highly PI-resistant HIV-1 variants (in words): unable to suppress the replication

## CC(C)CN(C[C@@H](O)[C@H](Cc1ccccc1)NC(=O)OC1C[C@@H]2CO[C@@H]3OC1C[C@H]23)S(=O)(=O)c1ccc2nc(NC3CC3)sc2c1 (stereo partly drawn) [inhibitor 4b, (1R,3aS,7aR)-Octahydro-1,6-epoxyisobenzofuran-5-yl((2S,3R)-4-((2-(Cyclopropylamino)-N-isobutylbenzo[d]-thiazole)-6-sulfonamido)-3-hydroxy-1-phenylbutan-2-yl)-carbamate]
HIV-1 protease
  fold better enzyme Ki than inhibitor 5b: ~10 fold

## CC(C)CN(C[C@@H](O)[C@H](Cc1cc(F)cc(F)c1)NC(=O)OC1C[C@@H]2CO[C@@H]3OC1C[C@H]23)S(=O)(=O)c1ccc2nc(NC3CC3)sc2c1 (stereo partly drawn) [inhibitor 4d, (1R,3aS,7aR)-Octahydro-1,6-epoxyisobenzofuran-5-yl((2S,3R)-4-((2-(Cyclopropylamino)-N-isobutylbenzo[d]-thiazole)-6-sulfonamido)-1-(3,5-difluorophenyl)-3-hydroxybutan-2-yl)carbamate]
[1]; Human immunodeficiency virus 1, read-out: antiviral activity against highly drug-resistant HIV-1 variants
  IC50: 0.21 to 4.5 nM

## CC(C)CN(C[C@@H](O)[C@H](Cc1ccc(F)cc1)NC(=O)OC1C[C@@H]2CO[C@@H]3OC1C[C@H]23)S(=O)(=O)c1ccc2nc(NC3CC3)sc2c1 (stereo partly drawn) [inhibitor 4f, (1R,3aS,7aR)-Octahydro-1,6-epoxyisobenzofuran-5-yl((2S,3R)-4-((2-(Cyclopropylamino)-N-isobutylbenzo[d]-thiazole)-6-sulfonamido)-1-(4-fluorophenyl)-3-hydroxybutan-2-yl)carbamate]
HIV-1LAI
  fold improvement of antiviral activity compared to inhibitor 4b: over 7 fold

## CC(C)CN(C[C@@H](O)[C@H](Cc1ccccc1)NC(=O)O[C@H]1C[C@H]2CO[C@H]3OC1C[C@@H]23)S(=O)(=O)c1ccc2nc(NC(C)C)oc2c1 [inhibitor 5c, (1S,3aR,5S,7aS)-Octahydro-1,6-epoxyisobenzofuran-5-yl((2S,3R)-3-Hydroxy-4-((N-isobutyl-2-(isopropylamino)benzo-[d]oxazole)-6-sulfonamido)-1-phenylbutan-2-yl)carbamate]
HIV-1LAI
  fold improvement of antiviral activity compared to inhibitor 4c: over 5 fold
[1]
  ability to block replication of highly PI-resistant HIV-1 variants (in words): failed to block replication

## CC(C)CN(C[C@@H](O)[C@H](Cc1cc(F)cc(F)c1)NC(=O)O[C@H]1C[C@H]2CO[C@H]3OC1C[C@@H]23)S(=O)(=O)c1ccc2nc(NC3CC3)sc2c1 [inhibitor 5d, (1S,3aR,5S,7aS)-Octahydro-1,6-epoxyisobenzofuran-5-yl((2S,3R)-4-((2-(Cyclopropylamino)-N-isobutylbenzo[d]-thiazole)-6-sulfonamido)-1-(3,5-difluorophenyl)-3-hydroxy-butan-2-yl)carbamate]
HIV-1LAI
  fold reduction of antiviral activity compared to inhibitor 4d: ~25 fold

## CC(C)CN(C[C@@H](O)[C@H](Cc1ccc(F)cc1)NC(=O)O[C@H]1C[C@H]2CO[C@H]3OC1C[C@@H]23)S(=O)(=O)c1ccc2nc(NC3CC3)sc2c1 [inhibitor 5f, (1S,3aR,5S,7aS)-Octahydro-1,6-epoxyisobenzofuran-5-yl((2S,3R)-4-((2-(Cyclopropylamino)-N-isobutylbenzo[d]-thiazole)-6-sulfonamido)-1-(4-fluorophenyl)-3-hydroxybutan-2-yl)carbamate]
HIV-1LAI
  fold improvement of antiviral activity compared to inhibitor 5b: over 4 fold
